Results taken from patent publication US4477664A, “Novel 1-(4-piperidiniobenzyl)-2,3-dioxopiperazine derivatives or acid addition salts thereof” (Toyama Chemical Co., Ltd., priority 1979, dated 1984).
≈ marks a conversion by molar mass, not a printed value.

Columns and labels:
Ehrlich cells = experiment: MIC value against Ehrlich cells (microplate method); format: cell-based; conditions: 96 h, 2×10^4 cells/ml, 4 days, Giemsa staining
Description: (§1) a. MIC value against HeLa S3 cells and Ehrlich cells (microplate method) Number of cells: 2×10^4 cells/ml Culture medium: Eagle's MEM+20% calf embryonic serum Culture time: 4 days Judgement: Giemsa staining

HeLa S3 cells = experiment: MIC value against HeLa S3 cells (microplate method); format: cell-based; conditions: Homo sapiens, 96 h, 2×10^4 cells/ml, 4 days, Giemsa staining
Description: as §1

[1] = test system: Ehrlich ascites carcinoma cells; experiment: Effect on Ehrlich carcinoma (i): intraperitoneal inoculation, mean survival days; format: in vivo, ICR-strain mice; conditions: Mus musculus, ip, 168 h, once a day for 7 days, read-out: T/C (mean survival days)
Procedure: (i) Ehrlich ascites carcinoma cells (1×10^6 cells/head) were inoculated intraperitoneally into ICR-strain mice (female, 6 to 7 weeks old, each group consisting of 5 or 4 mice), and after 24 hours, the […] The effect thereof was judged from the mean survival days.
The test drugs were used in the form of a solution or suspension in a saline solution or a 0.3% carboxymethyl cellulose-containing saline solution. [formula]

[2] = test system: Ehrlich ascites carcinoma cells; experiment: Effect on Ehrlich carcinoma (ii): subcutaneous inoculation at inguinal region, mean tumor weight; format: in vivo, ICR-strain mice; conditions: intraperitoneally, once a day for 5 days, judgement day 13
Procedure: (ii) Ehrlich ascites carcinoma cells (4×10^6 cells/head) were inoculated subcutaneously at the inguinal region into ICR-strain mice (female, 6 to 7 weeks old, each group consisting of 5 or 4 mice), and after 24 hours, the intraperitaneal or oral administration of a test drug was started and effected once a day for 5 days. The effect thereof was judged from the mean weight of tumor on the 13th or 15th day, respectively.
The test drug was used in the form of a solution or suspension in a saline solution or a 0.3% carboxymethyl cellulose-containing saline solution. [formula]

[3] = test system: Ehrlich ascites carcinoma cells; experiment: Effect on Ehrlich carcinoma (iii): subcutaneous inoculation at right armpit, mean tumor weight; format: in vivo, ICR-strain mice; conditions: 100 mg/kg, orally, once a day for 7 days, 14th day
Procedure: (iii) Ehrlich ascites carcinoma cells (4×10^6 cells/head) were inoculated subcutaneously at the right armpit region into ICR-strain mice (female, 7 weeks old, each group consisting of 6 or 7 mice), and after 24 hours, the oral administration or subcutaneous administration at the dorsal region of a test drug was started, and effected once a day for 7 days. The effect thereof was judged from the mean weight of the tumor on the 14th day. The test drug was used in the form of a solution or suspension in a saline solution or a 0.3% carboxymethyl cellulose-containing saline solution.
T/C was calculated in the same manner as in above (ii).

Acute toxicity = conditions: mouse, in vivo, ip; intraperitoneal, once, male mice, observed for 7 days
Description: The test drugs were used in the form of a solution or suspension in a saline solution or a 0.3% carboxymethyl cellulose-containing saline solution.

L-1210 ascites cells = experiment: Effect on L-1210 leukemia (i): intraperitoneal inoculation, mean survival days; format: in vivo, BDF1-strain mice; conditions: 50 mg/kg
Procedure: (i) L-1210 ascites cells (1×10^5 cells/head) were inoculated intraperitoneally into BDF1 -strain mice (female, 6 weeks old, each group consisting of 4 mice), and after 24 hours, the intraperitoneal administration of a test drug was started and effected once a day. The effect thereof was judged from the mean survival days. The test drug was used in the form of a solution or suspension in a saline solution or a 0.3% carboxymethyl cellulose-containing saline solution.
T/C was calculated in the same manner as in above b (i).

| SMILES | MIC (Ehrlich cells) [µg/mL] | MIC (HeLa S3 cells) [µg/mL] | response vs control in vivo at 100 mg/kg [1] [%] | further results |
| --- | --- | --- | --- | --- |
| Cc1ccc(Nc2ccc(CN3CCN(Cc4ccccc4)C(=O)C3=O)cc2)nc1 [Compound 25] | 0.39 (≈ 0.974 µM) | 0.39 (≈ 0.974 µM) |  |  |
| CCCCCCN1CCN(Cc2ccc(N(CC)CC)cc2)C(=O)C1=O [Compound 26] | 3.13 (≈ 8.71 µM) | 3.13 (≈ 8.71 µM) |  | response vs control in vivo at 40 mg/kg [1]: 157%; T/C (mean tumor weight) ([2]; 6.25 mg/kg): 64%; T/C (mean tumor weight) ([2]; 12.5 mg/kg): 67%; T/C (mean tumor weight) ([2]; 25 mg/kg): 61% |
| CC=CC=CCN1CCN(Cc2ccc(N(CC)CC)cc2)C(=O)C1=O [Compound 27] | 6.25 (≈ 17.6 µM) | 6.25 (≈ 17.6 µM) |  |  |
| CCCCCCN1CCN(Cc2ccc(N(CC)CC)c(Cl)c2)C(=O)C1=O [Compound 28] | 12.5 (≈ 31.7 µM) | 12.5 (≈ 31.7 µM) | 165 | response vs control in vivo at 40 mg/kg [1]: > 173% |
| CCCCCCN1CCN(Cc2ccc(N(CC)CC)c(C)c2)C(=O)C1=O [Compound 29] | 12.5 (≈ 33.5 µM) | 12.5 (≈ 33.5 µM) | 184 |  |
| CCCCCCN1CCN(Cc2ccc(N(CC)CC)cc2Cl)C(=O)C1=O [Compound 30] | 3.13 (≈ 7.94 µM) | 3.13 (≈ 7.94 µM) | 152 |  |
| CCCCCCN1CCN(Cc2ccc(N3CCCCC3)cc2)C(=O)C1=O [Compound 31] | 3.13 (≈ 8.42 µM) | 3.13 (≈ 8.42 µM) |  |  |
| CCCCCCN1CCN(Cc2ccc(NCC)cc2)C(=O)C1=O [Compound 32] | 6.25 (≈ 18.9 µM) | 6.25 (≈ 18.9 µM) |  |  |
| CCCCCCN1CCN(Cc2ccc(NC(C)C)cc2)C(=O)C1=O [Compound 33] | 0.78 (≈ 2.26 µM) | 0.78 (≈ 2.26 µM) |  |  |
| CCCCCCN1CCN(Cc2ccc(NC(=O)CCl)cc2)C(=O)C1=O [Compound 34] | 0.39 (≈ 1.03 µM) | 0.39 (≈ 1.03 µM) | > 142 | response vs control in vivo at 200 mg/kg ([1]; 200 mg/kg): 157% |
| CCCCCCN1CCN(Cc2ccc(NCc3ccncc3)cc2)C(=O)C1=O [Compound 35] | 6.25 (≈ 15.8 µM) | 6.25 (≈ 15.8 µM) | > 187 | response vs control in vivo at 50 mg/kg [1]: 146% |
| CCN(CC)c1ccc(CN2CCN(Cc3cnc(Cl)nc3Cl)C(=O)C2=O)cc1 [Compound 36] | 12.5 (≈ 28.6 µM) | 12.5 (≈ 28.6 µM) | 204 | response vs control in vivo at 40 mg/kg [1]: > 190% |
| CCN(CC)c1ccc(CN2CCN(CCN)C(=O)C2=O)cc1 [Compound 37] | 25 (≈ 78.5 µM) | 25 (≈ 78.5 µM) |  | T/C (mean tumor weight) ([2]; 25 mg/kg): 54%; T/C (mean tumor weight) ([2]; 50 mg/kg): 52%; T/C (mean tumor weight) ([2]; 100 mg/kg): 65% |
| CCN(CC)c1ccc(CN2CCN(Cc3ccccn3)C(=O)C2=O)cc1 [Compound 38] | 25 (≈ 68.2 µM) | 25 (≈ 68.2 µM) | 160 |  |
| CCN(CC)c1ccc(CN2CCN(Cc3cccnc3)C(=O)C2=O)cc1 [Compound 39] | 25 (≈ 68.2 µM) | 25 (≈ 68.2 µM) | > 164 |  |
| CCN(CC)c1ccc(CNCCN2CCN(Cc3ccc(N(CC)CC)cc3)C(=O)C2=O)cc1 [Compound 40] | 12.5 (≈ 26.1 µM) | 12.5 (≈ 26.1 µM) |  | response vs control in vivo at 30 mg/kg ([1]; 30 mg/kg): 154% |
| Cc1nc(Nc2ccc(CN3CCN(Cc4ccccc4)C(=O)C3=O)cc2)ccc1N [Compound 42] | < 0.05 | < 0.05 |  | T/C (mean tumor weight) [3]: 54%; response vs control in vivo at 50 mg/kg [1]: 149%; LD50 at 168 h (Acute toxicity): > 200 mg/kg; T/C (mean survival days) (L-1210 ascites cells; 7 administrations): 148% |
| Cc1cc(Nc2ccc(CN3CCN(Cc4ccccc4)C(=O)C3=O)cc2)ncc1N [Compound 43] | < 0.05 | < 0.05 |  | LD50 at 168 h (Acute toxicity): > 200 mg/kg; T/C (mean survival days) (L-1210 ascites cells; 7 administrations): 143% |
| Cc1cc(Nc2ccc(CN3CCN(Cc4ccccc4)C(=O)C3=O)cc2)nc(C)c1N [Compound 44] | 0.78 (≈ 1.82 µM) | 0.78 (≈ 1.82 µM) |  | LD50 at 168 h (Acute toxicity): > 200 mg/kg; T/C (mean survival days) (L-1210 ascites cells; 3 administrations): 137% |
| Nc1cnc(Nc2ccc(CN3CCN(Cc4ccccc4)C(=O)C3=O)cc2)nc1 [Compound 45] | 0.05 (≈ 0.124 µM) | 0.05 (≈ 0.124 µM) |  |  |
